Results on 51 molecules are retold here after patent US9393221B2, “Methods and compounds for reducing intracellular lipid storage” (THE GENERAL HOSPITAL CORPORATION, priority 2011, dated 2016).

Each structure is given as a SMILES string. Counter-ions that a name gives are not always drawn.

The experiment deals with ATGL-KO iPSCs. The experiment in a line: High throughput iPSC chemical screening, Oil Red O (ORO) lipid accumulation. On Z-score: test concentration or dose not given here. It counts as cell-based, mouse. The following applies: for Rank in normalized ORO score from screen: glycolytic switch compounds; for Z-score: normalized ORO level vs DMSO-treated cells, compound present during 7 days differentiation, 96-well, negative = decrease in lipid accumulation.

For the molecule `Cc1cc2c(C(C)C)c(O)c(O)c(C=O)c2c(O)c1-c1c(C)cc2c(C(C)C)c(O)c(O)c(C=O)c2c1O` [Gossypol], the “Rank in normalized ORO score from screen” value came out at 8 and the Z-score was −2.0704.

`CN(C)Cc1c[nH]c2ccccc12` [Gramine] gave a Z-score of 1.618.

`Cn1c(-c2ccc3c(c2)OCO3)cc(=O)c2ccccc21` [Graveoline] had a Z-score of −1.0242.

`COC1=CC(=O)C[C@@H](C)[C@]12Oc1c(Cl)c(OC)cc(OC)c1C2=O` [Griseofulvin] yielded a Z-score of 0.2728.

In turn, `COc1ccccc1OCC(O)CO` (centres unmarked) [Guaifenesin] displayed a Z-score of 0.144.

The molecule `N=C(N)N/N=C/c1c(Cl)cccc1Cl` [Guanabenz acetate] registered a Z-score of −0.3551.

For `N=C(N)NC(=O)Cc1c(Cl)cccc1Cl` [Guanfacine hydrochloride], the Z-score is on record as −0.0783.

As to `CC1(C)O[C@@H]2C[C@H]3[C@@H]4CCC5=CC(=O)CC[C@]5(C)[C@@]4(F)[C@@H](O)C[C@]3(C)[C@]2(C(=O)CCl)O1` [Halcinonide], the Z-score is recorded as −0.7085.

Take `CCCCN(CCCC)CCC(O)c1cc2c(Cl)cc(Cl)cc2c2cc(C(F)(F)F)ccc12` (centres unmarked) [Halofantrine hydrochloride]: the Z-score is 1.459.

As to `O=C(CCCN1CCC(O)(c2ccc(Cl)cc2)CC1)c1ccc(F)cc1` [Haloperidol], the Z-score is listed as −1.1776.

For the molecule `COc1ccc2c3c([nH]c2c1)C(C)=NCC3.Cl.O.O` [Harmaline hydrochloride dihydrate], the Z-score was −0.5714.

Molecule `CC1=NCCc2c1[nH]c1cc(O)ccc21.Cl.O.O` [Harmalol hydrochloride dihydrate] showed a Z-score of 0.3888.

Molecule `COc1ccc2c(c1)[nH]c1c(C)nccc12.Cl` [Harmine hydrochloride] registered a Z-score of 0.3085.

`Cc1[nH]ccc2c1[nH]c1cc(=O)ccc12` [Harmol hydrochloride monohydrate] had a Z-score of −0.0757.

Consider `C[C@]1(OC(=O)/C=C/c2ccccc2)C[C@@H](O)[C@]2(O)C=CO[C@@H](O[C@@H]3O[C@H](CO)[C@@H](O)[C@H](O)[C@H]3O)[C@@H]21` [Harpagoside], for which the Z-score was −1.174.

Turning to `C[C@@H]1CC[C@@]2(OC1)O[C@H]1C[C@H]3[C@@H]4CC[C@@]5(C)C[C@@H](O)CC[C@]5(C)[C@H]4CC(=O)[C@]3(C)[C@H]1[C@@H]2C` [Hecogenin], the Z-score is recorded as 0.9208.

Take `CO[C@H](C)[C@](O)(C(=O)OCC1=CCN2CC[C@H](O)[C@@H]12)C(C)C` [Heliotrine]: the Z-score is −1.2812.

`C[N+]1(C)CCOC(O)(c2ccc(-c3ccc(C4(O)C[N+](C)(C)CCO4)cc3)cc2)C1.[Br-].[Br-]` (centres unmarked) [Hemicholinium bromide] showed a Z-score of 2.91.

`CC(N)CCCC(C)(C)O` (centres unmarked) [Heptaminol hydrochloride] returned a Z-score of −0.2987.

On to `COc1ccc([C@@H]2CC(=O)c3c(O)cc(O)cc3O2)cc1O` [Hesperetin], for which the Z-score was −1.3358.

On to `COc1ccc([C@@H]2CC(=O)c3c(O)cc(O[C@@H]4O[C@H](CO[C@@H]5O[C@@H](C)[C@H](O)[C@@H](O)[C@H]5O)[C@@H](O)[C@H](O)[C@H]4O)cc3O2)cc1O` [Hesperidin], for which the Z-score came to 2.254.

As for `C[N+](C)(C)CCCCCC[N+](C)(C)C.O.O.[Br-].[Br-]` [Hexamethonium dibromide dihydrate], the Z-score was −0.5997.

Regarding `CC[C@H](c1ccc(O)cc1)[C@@H](CC)c1ccc(O)cc1` [Hexestrol], the Z-score is recorded as −1.0339.

The molecule `CCCCC(CC)CN1CN(CC(CC)CCCC)CC(C)(N)C1` (centres unmarked) [Hexetidine] yielded a Z-score of 1.396.

Take `CC(CNC1CCCCC1)OC(=O)c1ccccc1` (centres unmarked) [Hexylcaine hydrochloride]: the Z-score is 0.687.

`CN1CCC2=C[C@H](O)[C@H]3OC(=O)c4cc5c(cc4[C@H]3[C@@H]21)OCO5` [Hippeastrine hydrobromide]: the Z-score was −1.1441.

On to `CN1CCCN(C(c2ccccc2)c2ccc(Cl)cc2)CC1` (centres unmarked) [Homochlorcyclizine dihydrochloride], for which the Z-score is −0.8178.

As to `CC1CC(OC(=O)c2ccccc2O)CC(C)(C)C1` (centres unmarked) [Homosalate], the “Rank in normalized ORO score from screen” value is recorded as 320 and the Z-score is recorded as −0.7744.

`CCN(CC)CCNc1ccc(CO)c2sc3ccccc3c(=O)c12` [Hycanthone] gave a Z-score of 20.1467.

Consider `NNc1nncc2ccccc12` [Hydralazine hydrochloride], for which the Z-score is recorded as 9.342.

In turn, `COc1ccc2c(c1OC)C(=O)O[C@@H]2[C@H]1c2cc3c(cc2CCN1C)OCO3` [Hydrastine hydrochloride] showed a Z-score of −0.3277.

The molecule `CN1CCc2cc3c(cc2C1O)OCO3` (centres unmarked) [Hydrastinine hydrochloride] came in with a Z-score of −0.5549.

Take `NS(=O)(=O)c1cc2c(cc1Cl)NCNS2(=O)=O` [Hydrochlorothiazide]: the Z-score was determined as 1.18.

Turning to `C[C@]12CCC(=O)C=C1CC[C@@H]1[C@@H]2[C@@H](O)C[C@@]2(C)[C@H]1CC[C@]2(O)C(=O)CO` [Hydrocortisone base], the Z-score is reported as −0.2176.

As to `COc1c2c(cc3c1OCO3)CCN(C)C2` [Hydrocotarnine hydrobromide], the Z-score is reported as −0.8038.

Take `NS(=O)(=O)c1cc2c(cc1C(F)(F)F)NCNS2(=O)=O` [Hydroflumethiazide]: the Z-score stood at 0.1855.

Regarding `CC[C@H]1CN2CC[C@H]1C[C@H]2[C@H](O)c1ccnc2ccc(OC)cc12` [Hydroquinine hydrobromide hydrate], the Z-score was 1.2243.

Consider `OCCOCCN1CCN(C(c2ccccc2)c2ccc(Cl)cc2)CC1` (centres unmarked) [Hydroxyzine dihydrochloride], for which the Z-score is listed as −0.9071.

`Cc1cc(=O)oc2cc(O)ccc12` [Hymecromone] returned a Z-score of −0.7731.

For `CN1[C@@H]2CC[C@H]1C[C@@H](OC(=O)[C@H](CO)c1ccccc1)C2` [Hyoscyamine (L)], the Z-score is listed as 1.204.

As for `c1ccc2c(c1)OCC(C1=NCCN1)O2` (centres unmarked) [Idazoxan hydrochloride], the Z-score was −1.447.

Consider `O=c1[nH]c(=O)n([C@H]2C[C@H](O)[C@@H](CO)O2)cc1I` [Idoxuridine], for which the Z-score is given as −1.0734.

Regarding `O=P1(NCCCl)OCCCN1CCCl` (centres unmarked) [Ifosfamide], the Z-score was −1.424.

In turn, `O=C(NCNC(=O)NC1C(=O)NC(=O)N1CO)NC1C(=O)NC(=O)N1CO` (centres unmarked) [Imidurea] displayed a Z-score of 0.2567.

Take `C[C@@H](O)[C@H]1C(=O)N2C(C(=O)O)=C(SCCN=CN)C[C@H]12` [Imipenem]: the Z-score is listed as −0.7436.

`CN(C)CCCN1c2ccccc2CCc2ccccc21` [Imipramine hydrochloride] had a Z-score of 1.459.

Take `CC1Cc2ccccc2N1NC(=O)c1ccc(Cl)c(S(N)(=O)=O)c1` (centres unmarked) [Indapamide]: the Z-score is −0.6747.

As for `COc1ccc2c(c1)c(CC(=O)O)c(C)n2C(=O)c1ccc(Cl)cc1` [Indomethacin], the Z-score is reported as −0.7862.

Consider `CC(C(=O)O)c1ccc(N2Cc3ccccc3C2=O)cc1` (centres unmarked) [Indoprofen], for which the Z-score is −1.4204.

Molecule `CC(=O)N(CC(C)C(=O)O)c1c(I)cc(I)c(N)c1I` (centres unmarked) [Iocetamic acid] came in with a Z-score of −1.5742.

`O=C(CCCCC(=O)Nc1c(I)cc(I)c(C(=O)O)c1I)Nc1c(I)cc(I)c(C(=O)O)c1I` [Iodipamide] gave a Z-score of −0.3225.
